Patent publication US9175355B2, “Methods for determining the presence of antibodies blocking viral infection” (Monogram Biosciences, Inc., priority 2002, dated 2015)

Key:
X4 tropic viruses = conditions: inhibitory concentration of drug; U87/CD4/CXCR4
Method: One cell line expresses CD4 plus CCR5 (U87/CD4/CCR5), also referred to as R5 cells in this application. The other cell line expresses CD4 and CXCR4 (U87/CD4/CXCR4) also referred to as X4 cells in this application. The virus entry assay is performed by infecting individual cell cultures with recombinant virus stocks derived from cells transfected with pHIVenv and pHIV luc or pHIVlucΔU3 vectors. pHIVenv vectors contain patient virus derived sequences and express HIV-1 envelope proteins (gp120SU, gp41TM). In this embodiment viruses are evaluated in using R5 and X4 target cells cultured in 96 well plates (FIG. 3A). Typically, R5 and X4 cells are plated one day prior to infection. […] Co-receptor tropism is assessed by comparing the amount of luciferase activity produced in each cell type, both in the presence and absence of drug. In this embodiment, the results of the assay are interpreted by comparing the ability of each virus to preferentially infect (produce luciferase activity) R5 cells or X4 cells, or both X4 and R5 cells if the virus is dual tropic. The ability of the CCR5 or CXCR4 inhibitor to specifically block infection (inhibit luciferase activity) is also evaluated (FIG. 3B).

[1] = system: HIV-1 (NL4-3, JRCSF) with mutations in the GIV motif of gp41; assay: Virus entry assay: T-20 susceptibility of site directed gp41 mutant viruses; assay type: cell-based; conditions: cells expressing CD4, CCR5 and CXCR4; luciferase; compared by IC50
Method: Susceptibility assays for HIV-1 entry inhibitors were performed using packaging host cells consisting of the human embryonic kidney cell line 293 (Cell Culture Facility, UC San Francisco, SF, CA) and target host cells consisting of a human osteosarcoma (HOS) cell line expressing CD4 (HT4) plus CCR5, and CXCR4, or astrocytoma (U-87) cell lines expressing either CD4 and CCR5 or CD4 and CXCR4.
Drug susceptibility testing was performed using pHIVenv and pHIVluc or pHIVlucΔU3. Pseudotyped HIV particles containing envelope proteins encoded by the patient derived segment were produced by transfecting a packaging host cell (HEK 293) with resistance test vector DNA. […] After infection (˜72 h) the target cells are lysed and luciferase activity is measured. […] The amount of luciferase activity detected in the infected cells is used as a direct measure of “infectivity” (FIGS. 1 and 2). […] Drug susceptibility is assessed by comparing the infectivity in the absence of drug to infectivity in the presence of drug. Relative drug susceptibility can be quantified by comparing the susceptibility of the “test” virus to the susceptibility of a well-characterized reference virus (wildtype) derived from a molecular clone of HIV-1, for example NL4-3 or HXB2. […]

Compound: c1cc(CN2CCCNCCNCCCNCC2)ccc1CN1CCCNCCNCCCNCC1 [AMD3100]
- Infection of X4 cells by X4 tropic viruses (luciferase activity) (X4 tropic viruses): blocked

Compound: enfuvirtide
- T-20 susceptibility of viruses with one mutation in gp41 motif (DIV, GIM, SIV) vs wildtype virus (GIV) [1]: less susceptible
- T-20 susceptibility of viruses with two mutations in GIV motif (DIM, SIM, DTV) vs viruses with one or no mutations [1]: less susceptible
